Measured values: paper PMC3600725 (CPT: Pharmacometrics & Systems Pharmacology, 2013)
“Also recorded” adds a separate entry of the source. Like-named read-outs stand apart in the source and are kept apart here.

Experiments:
[1] = molecular target: MRP2 (Homo sapiens, UniProt Q92887); details: 50 µmol/l MK571; cited from earlier work
[2] = test system: human sandwich-cultured hepatocytes (SCH); assay: Accumulation, BEI and in vitro clearance in human SCH; type: in vitro ADME
[3] = Estimated portal vein concentration of ritonavir; set-up: species or system human
[4] = type: in vivo, human
[5] = cited from earlier work
[6] = cited from earlier work; remark: listed apart in the source
[7] = from human SCH data, well-stirred model, mean ± SD of n=3 donors
[8] = 2 × 300 mg oral ritonavir 14 and 2 h before, mean ± SD, n = 3
[9] = ^99mTc–mebrofenin alone (control), mean ± SD, n = 8

Sequence of MRP2 (Q92887 whole entry): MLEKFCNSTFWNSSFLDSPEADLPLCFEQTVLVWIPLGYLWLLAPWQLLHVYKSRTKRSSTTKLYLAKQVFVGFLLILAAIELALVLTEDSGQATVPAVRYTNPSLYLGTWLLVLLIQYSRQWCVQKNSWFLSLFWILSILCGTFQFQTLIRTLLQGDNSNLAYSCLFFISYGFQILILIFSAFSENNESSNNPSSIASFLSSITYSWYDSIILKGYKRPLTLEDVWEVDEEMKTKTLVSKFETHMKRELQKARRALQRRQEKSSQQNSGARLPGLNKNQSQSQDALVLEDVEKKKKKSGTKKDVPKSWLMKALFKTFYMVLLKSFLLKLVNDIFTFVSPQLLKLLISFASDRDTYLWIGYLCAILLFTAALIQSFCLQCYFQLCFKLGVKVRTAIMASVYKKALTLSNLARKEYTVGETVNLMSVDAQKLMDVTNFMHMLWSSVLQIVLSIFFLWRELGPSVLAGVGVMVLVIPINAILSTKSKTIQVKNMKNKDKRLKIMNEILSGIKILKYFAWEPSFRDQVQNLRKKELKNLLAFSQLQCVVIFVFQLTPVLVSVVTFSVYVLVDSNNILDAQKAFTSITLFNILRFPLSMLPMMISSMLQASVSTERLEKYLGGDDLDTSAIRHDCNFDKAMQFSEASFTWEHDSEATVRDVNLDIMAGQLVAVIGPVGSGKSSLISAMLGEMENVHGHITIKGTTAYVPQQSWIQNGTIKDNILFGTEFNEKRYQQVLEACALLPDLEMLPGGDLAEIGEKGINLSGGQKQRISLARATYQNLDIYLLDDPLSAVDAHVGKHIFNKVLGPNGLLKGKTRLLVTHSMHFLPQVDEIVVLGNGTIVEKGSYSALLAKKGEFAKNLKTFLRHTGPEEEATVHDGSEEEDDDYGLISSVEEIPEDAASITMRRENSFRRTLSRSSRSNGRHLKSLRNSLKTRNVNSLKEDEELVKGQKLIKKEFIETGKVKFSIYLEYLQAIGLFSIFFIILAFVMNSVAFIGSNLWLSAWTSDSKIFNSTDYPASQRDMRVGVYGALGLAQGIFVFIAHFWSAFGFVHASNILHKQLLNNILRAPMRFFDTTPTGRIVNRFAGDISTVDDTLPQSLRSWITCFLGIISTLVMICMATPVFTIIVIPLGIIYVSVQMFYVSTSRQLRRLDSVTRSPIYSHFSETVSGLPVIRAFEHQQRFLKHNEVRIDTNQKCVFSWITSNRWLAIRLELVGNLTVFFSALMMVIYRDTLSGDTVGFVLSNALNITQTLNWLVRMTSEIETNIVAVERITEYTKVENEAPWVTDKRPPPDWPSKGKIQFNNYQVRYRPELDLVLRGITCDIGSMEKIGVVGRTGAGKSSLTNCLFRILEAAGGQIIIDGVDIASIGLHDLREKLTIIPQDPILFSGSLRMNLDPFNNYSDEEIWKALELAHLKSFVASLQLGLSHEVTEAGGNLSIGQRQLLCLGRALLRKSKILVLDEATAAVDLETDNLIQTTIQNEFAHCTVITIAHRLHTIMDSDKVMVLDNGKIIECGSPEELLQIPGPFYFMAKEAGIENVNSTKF

CN(C)C(=O)CCSC(SCCC(=O)O)c1cccc(/C=C/c2ccc3ccc(Cl)cc3n2)c1 (stereo not shown) [MK571]
Reduction of ATP-dependent transport of ^99mTc–mebrofenin (MRP2 vesicles) [1]: 88 ± 2%

CC(C)c1nc(CN(C)C(=O)N[C@H](C(=O)N[C@@H](Cc2ccccc2)C[C@H](O)[C@H](Cc2ccccc2)NC(=O)OCc2cncs2)C(C)C)cs1 [Ritonavir]
Total cellular accumulation of ritonavir (Ccell,total) ([2]; human SCH): up to 100 µmol/l
Maximum estimated portal vein concentration [3]: up to 45 µmol/l

Cc1cc(C)c(NC(=O)CN(CC(=O)[O-])CC(=O)[O-])c(C)c1Br.Cc1cc(C)c(NC(=O)CN(CC(=O)[O-])CC(=O)[O-])c(C)c1Br.[99Tc+4] [^99mTc–mebrofenin, ^99mTechnetium–mebrofenin]
CLbiliary, Predicted In Vivo Clearance [2, 7]: 4.4 ± 1.5 mL/min/kg
CLuptake, Predicted In Vivo Clearance [2, 7]: 10.6 ± 3.1 mL/min/kg
In vitro intrinsic CLuptake lower than semi-PBPK CLuptake,h ([2]; human SCH vs Table 2 estimate): ~ 50 fold
CLuptake, In Vitro Intrinsic Clearance ([2]; human SCH, mean ± SD of n=3 donors): ~ 24 mL/min/kg
AUC0–∞ (blood) [4, 8]: 4,464 ± 1,861 nCi·min/ml
Biliary recovery [4, 8]: 72 ± 2 % Dose
Change in AUCblood,0-∞ (systemic exposure) ([4]; 2 × 300 mg ritonavir as compared with control): significantly greater, by approximately twofold; also recorded: twofold increase
Biliary recovery ([4]; 2 h after single 200 mg oral ritonavir, mean ± SD, n = 7): 59 ± 11 % Dose
AUC0–∞ (blood) [4, 9]: 1,970 ± 311 nCi·min/ml
Biliary recovery [4, 9]: 75 ± 12 % Dose
CLbiliary [4, 9]: 12.5 ± 2.5 mL/min/kg
Urinary recovery ([4]; all groups, unaffected by ritonavir treatment): ~ 1 % of the administered dose
Hepatic extraction ratio (CLtotal/Qh) ([4]; control subjects, mean ± SD): 0.80 ± 0.16
Hepatic extraction, previous reports [5]: ~ 100%
Hepatic elimination half-life, previous reports [6]: ~ 15 min
Time of maximum liver concentration, reported value [6]: 11 min
